# Test results reported in US7250157B2, “Dermatological compositions and methods” (Applied Genetics Incorporated Dermatics, priority 1996, dated 2007).
# How the values were obtained:
# [1] = system: Cloudman S91 mouse melanoma cell line; assay: Trypsinization detachment time of S91 cells; format: cell-based
# Method: (§1) Following this microscopic examination, cells were detached from dishes by trypsin. The time required for detachment by trypsin was recorded as an additional indicator of the phenotypic effects of test compounds. For each treatment, a subsample of cells was counted to determine the effects of treatment compounds on cellular proliferation. The remainder of cells were used for determination of melanin content. Melanin was extracted from cells by vortexing for 15 min in 1N NaOH. Standards were prepared by dissolving melanin (Sigma) in 1 N NaOH (Eller, et al., 1996). Absorbance of standards and samples was measured at 475 nm. Melanin was expressed as pg melanin/cell.
# [2] = system: Cloudman S91 mouse melanoma cell line; assay: Cell count (proliferation, toxicity) of treated S91 cells; format: cell-based
# Method: (§2) The Cloudman S91 mouse melanoma cell line was obtained from American Type Culture Collection (ATCC). Cells were cultured in Dulbecco's Modified Eagles Medium (DMEM) containing 10% calf serum, 2 mM L-glutamine, 10 U Penicillin/ml and 10 ug Streptomycin/ml according to a previously published protocol (Eller, et al., Proc. Natl. Acad. Sci. 93:1087-92. 1996). For testing propylene glycol and analogues for induction of melanogenesis, S91 cells were plated at 10^5 cells/35 mm dish in 10% calf serum. One day after plating, media was removed and replaced with media containing 2% calf serum and test compounds (Eller, et al., 1996). Cells were cultured for 6 days at 37° C. in 5% CO2 in a humidified incubator. Following this treatment period, cells were examined microscopically and the portion of dedifferentiated and differentiated cells was estimated. Previous studies have shown that dedifferentiated S91 cells have a rounded, spindly appearance while differentiated S91 cells have a flattened, cuboidal, multipolar and dendritic appearance (Orlow, et al., Exp. Cell Res. 191:209-218, 1990).
# as §1
# [3] = system: Cloudman S91 mouse melanoma cell line; assay: Microscopic morphology (differentiation) of S91 cells; format: cell-based
# Method: as §2
# [4] = system: Cloudman S91 mouse melanoma cell line; assay: Melanin content of S91 cells after treatment with test compound; format: cell-based; conditions: for induction of melanogenesis (in words): concentrations tested in Example 2
# Method: The Cloudman S91 mouse melanoma cell line was obtained from American Type Culture Collection (ATCC). […] For testing propylene glycol and analogues for induction of melanogenesis, S91 cells were plated at 10^5 cells/35 mm dish in 10% calf serum. […] Cells were cultured for 6 days at 37° C. in 5% CO2 in a humidified incubator. Following this treatment period, cells were examined microscopically and the portion of dedifferentiated and differentiated cells was estimated.
# as §1, with “Melanin was extracted from cells by vortexing for 15 min in 1N NaOH. Standards were prepared by dissolving melanin (Sigma) in 1 N NaOH (Eller, et al., 1996).” left out
# [5] = system: American short-haired guinea pigs; assay: Topical melanogenesis (pigmentation rating) in guinea pigs; format: in vivo, guinea pig; conditions: for relative melanogenesis rating (mean ±SE), scale 0-4: 25 μl twice per day for 5 days, rated two weeks after, full strength solutions
# Method: Compounds were tested for melanogenic activity in vivo by application to American short-haired guinea pigs. Treatment sites were created by removal of fur using Nair® brand depilatory. In the Table, the numbers presented are the relative melanogenesis rating (mean ±SE), and are arranged according to the relative location on the animal, with the head being to the left and the tail being to the right. Propylene glycol (PG=13.6M), 2,3-butanediol (2,3-BD=10.95M), and 1,2-cis-cyclopentanediol (1,2-cs-CPD=10.7M) were applied as full strength solutions. 3,3-dimethyl-1,2-butanediol (3,3-M-1,2-BD) was applied as a 4M solution dissolved in ethanol. Two weeks following cessation of treatments, the degree of pigmentation was subjectively rated according to the following scale:
# In order to minimize the effects of dimunition of response from head to tails of animals, all future experiments were done using only treatment spots located towards the tails of animals (c and d in Table 7). Deemed as additionally beneficial, in this area of the animal differences of responsiveness to strong and weak inducers of pigmentation, as deduced from cell culture, were greatest. […] Pigmentation ratings were corrected for background (control treatment spots), normalized to 1M to account for the different amounts of each agent applied, and then normalized to results for 1,2-PG (Table 8). […] It is anticipated that further improvements in formulation will additionally improve responsiveness to 5-NBene-2,2-DM and other compounds in this invention.
# In FIG. 5, a, b, c and d indicate treatment spots that transverse the anterior-posterior axis along the backs of guinea pigs.
# [6] = system: tyrosinase activity in S91 mouse melanoma cells; assay: Induction of tyrosinase activity in S91 cells; conditions: for more tyrosinase activity than 5-norbornene-2,2-dimethanol: calculated from data in FIG. 5
# Method: Compounds were examined for their ability to induce tyrosinase activity in S91 mouse melanoma cells. […] Following treatments, cells were trypsinized, counted by Coulter, pelleted by centrifugation at 1000×g, and analyzed for tyrosinase activity using modifications of previously described procedures (Pomerantz, S. H., 1966, J. Biol. Chem. 241:161-168; Jara, et al., 1988, Pigment Cell Res. 1: 332-339.). Briefly, cell pellets were solubilized by sonicating for 5 seconds in 600 ul 50 mM phosphate buffer pH 6.8 containing 0.5% Triton-X100, followed by vortexing, incubation on ice for 30 min, and then revortexing. From this, 200 ul aliquots were combined with 200 ul of reaction mixture containing either 75 uM tyrosine, 75 uM L-Dopa, and 2 uCi L-[3,5-^3H]Tyrosine in 50 mM NaPO4 pH 6.8 (L-Dopa+), or, 75 uM tyrosine, and 2 uCi L-[3,5-^3H]Tyrosine in 50 mM NaPO4 pH 6.8 (L-Dopa−) and incubated 1 hr at 37° C. Reactions were stopped by addition of 400 ul 10% activated charcoal in 0.1N HCl and incubation on ice for 15 min. This mixture was centrifuged at 17,300×g for 5 min, and 400 ul supernatant was then filtered through a 0.22 uM GV Durapore centifugal filter unit (Millipore) by centrifuging at 17,300×g for 5 min. Filtrate was added to 4 ml Fisher Plus scintillation fluid and counted on a Hewlett Packard scintillation counter. Tyrosinase activity was calculated as dpm/hr/ug protein and dpm/hr/10^3 cells. Each sample was analyzed with and without L-Dopa, a necessary cofactor for tyrosinase (Pomerantz, S. H., 1966, J. Biol. Chem. 241:161-168; McLane, et al., 1987, Biochem. Biophys. Res. Commun. 145:719-725). All reported tyrosinase values are exclusive of counts that occurred in buffer blanks and L-dopa negative aliquots. Protein was determined on aliquots of cell lysate, extracellular particulate lysate or media by the Bradford Coomassie Blue method (Bradford, 1967, Anal. Biochem. 72:248-254) using Bio-Rad Protein Assay Kit I.
# [7] = system: nitric oxide in cell-free media from S91 cells; assay: Nitric oxide in cell-free media from S91 cells (Greiss reagent); format: cell-based, mouse; conditions: 4 days
# Method: In a related experiment, nitric oxide was measured in cell-free media from S91 cells following treatment with a range of concentrations of 2,3-cis/exo-pinanediol or 5-norbornene-2,2-dimethanol for 4 days. In biological fluids, nitric oxide is converted into nitrite and nitrate with seconds of production. Therefore, nitric oxide is measured by first converting nitrate to nitrite using nitrate reductase, followed by addition of Greiss reagent to detect nitrite as optical density at 550 nm (Moshage, et al., 1995, Clin. Chem. 41:892-896; Schmidt, et al., 1995, Biochemica 2:22)). […] Moreover, the relative melanogenic potency of 2,3-cis/exo-pinanediol and 5-norbornene-2,2-dimethanol shown in FIG. 5 paralleled the relative potency of these compounds with regards to induction of nitric oxide (Table 17). […] It follows that measurement of induction of nitric oxide, cGMP or PKG may provide biochemically relevant screening assays for compounds that may be melanogenic. Thus, the utilization of these assays to screen compounds for melanogenic activity is claimed in the present invention.
smiles,measurement,setting,value
"CC(O)C(C)O (centres unmarked) [BD-2,3, 2,3-butanediol]",Trypsinization Detachment Time,[1]; 50 mM,3 min
same,Trypsinization Detachment Time,[1]; 150 mM,9 min
same,Cells (×10^6),[2]; 50 mM,0.072 ×10^6
same,Cells (×10^6),[2]; 150 mM,0.040 ×10^6
same,reduction of cell numbers,[2]; 150 mM,one-third
same,Morphology Flattened Cuboidal,[3]; 50 mM,75%
same,Morphology Rounded Spindly,[3]; 50 mM,25%
same,Morphology Flattened Cuboidal,[3]; 150 mM,100%
same,Concentration Required for ≧2-fold Melanin Induction in S91 Cells,[4],100 mM
same,pg Melanin/Cell,[4]; 50 mM,15.6 pg Melanin/Cell
same,ug Melanin,[4]; 50 mM,1.12 µg
same,pg Melanin/Cell,[4]; 150 mM,23.8 pg Melanin/Cell
same,ug Melanin,[4]; 150 mM,0.95 µg
same,melanogenesis in guinea pigs (in words),[5]; same relative body position,only slightly better melanogenic agents than propylene glycol
same,"relative melanogenesis rating (mean ±SE), scale 0-4",[5]; site b,1.33 ± 0.17^2
same,"relative melanogenesis rating (mean ±SE), scale 0-4",[5]; site d (tail),0.25 ± 0.14
"OCCCO [PG-1,3, 1,3-propanediol]",Trypsinization Detachment Time,[1]; 50 mM,3 min
same,Trypsinization Detachment Time,[1]; 150 mM,6 min
same,Cells (×10^6),[2]; 50 mM,0.064 ×10^6
same,Cells (×10^6),[2]; 150 mM,0.044 ×10^6
same,reduction of cell numbers,[2]; 150 mM,one-third
same,Morphology Flattened Cuboidal,[3]; 50 mM,25%
same,Morphology Rounded Spindly,[3]; 50 mM,75%
same,Morphology Flattened Cuboidal,[3]; 150 mM,50%
same,Morphology Rounded Spindly,[3]; 150 mM,50%
same,pg Melanin/Cell,[4]; 50 mM,20.4 pg Melanin/Cell
same,ug Melanin,[4]; 50 mM,1.31 µg
same,pg Melanin/Cell,[4]; 150 mM,23.6 pg Melanin/Cell
same,ug Melanin,[4]; 150 mM,1.04 µg
"OCC(O)CO [G, Glycerol]",Trypsinization Detachment Time,[1]; 50 mM,3 min
same,Trypsinization Detachment Time,[1]; 150 mM,3 min
same,Cells (×10^6),[2]; 50 mM,0.092 ×10^6
same,Cells (×10^6),[2]; 150 mM,0.084 ×10^6
same,Morphology Rounded Spindly,[3]; 50 mM,100%
same,Morphology Flattened Cuboidal,[3]; 150 mM,25%
same,Morphology Rounded Spindly,[3]; 150 mM,75%
same,pg Melanin/Cell,[4]; 50 mM,11.2 pg Melanin/Cell
same,ug Melanin,[4]; 50 mM,1.03 µg
same,pg Melanin/Cell,[4]; 150 mM,13.0 pg Melanin/Cell
same,ug Melanin,[4]; 150 mM,1.09 µg
same,induction of melanogenesis (in words),[4],only a slight effect on melanogenesis and differentiation
O=C1CCCN1 [2-pyrrolidone],morphological differentiation of S91 cells,[3],profound morphological differentiation
same,melanogenesis in S91 cells (≧2-fold increase = significant),[4]; range of concentrations up to a toxic dose,did not induce significant (≧2-fold increase) melanogenesis
"CC1(C)[C@@H]2C[C@H]1[C@@](C)(O)[C@@H](O)C2 (relative stereo) [2,3-cs/ex-PD, 2,3-cis/exo-pinanediol ([1R,2R,3S,5R]-[−]-pinanediol)]",Cells (×10^6),"[2]; 0.5 mM, 4 days, X ± SE, n = 3",0.325 ± 0.002 ×10^6
same,Cells (×10^6),"[2]; 1 mM, 4 days, X ± SE, n = 3",0.258 ± 0.010 ×10^6
same,Cells (×10^6),"[2]; 2.5 mM, 4 days, X ± SE, n = 3",0.099 ± 0.014 ×10^6
same,Cells (×10^6),"[2]; 5 mM, 4 days, X ± SE, n = 3",0.064 ± 0.006 ×10^6
same,Fold Induction of Tyrosinase Relative to Controls,[6]; 0.5 mM (Table 19),5.1X
same,"more tyrosinase activity than 5-norbornene-2,2-dimethanol",[6]; 500 uM,2.6 fold
same,Fold Induction of Tyrosinase Relative to Controls,[6]; 1 mM (Table 19),17.6X
same,"more tyrosinase activity than 5-norbornene-2,2-dimethanol",[6]; 1 mM,5.2 fold
same,Fold Induction of Tyrosinase Relative to Controls,[6]; 2.5 mM (Table 19),119X
same,"more tyrosinase activity than 5-norbornene-2,2-dimethanol",[6]; 2.5 mM,7.3 fold
same,Fold Induction of Tyrosinase Relative to Controls,[6]; 5 mM (Table 19),50.6X
same,relative melanogenic potency in S91 cells (in words),[6]; Table 19 data,"only slightly more potent than (1S, 2S, 3R, 5S)-(+)-pinanediol"
same,Pigmentation Ratings (X ± SE; n = 6; scale 0 to +4),"[5]; spot a (anterior), 8.7M 1,2-cis-CPD in 20% ETOH, 1M 5-NBene-2,2-DM in 8.5 M propylene glycol, 2% 2-pyrrolidone, 20% ETOH, 1M 2,3-cs/ex PD in 50% ETOH",2.00 ± 0.20
same,Pigmentation Ratings (X ± SE; n = 6; scale 0 to +4),"[5]; spot b, formulations as E220",1.75 ± 0.17
same,Pigmentation Ratings (X ± SE; n = 6; scale 0 to +4),"[5]; spot c, formulations as E220",1.75 ± 0.17
same,Pigmentation Ratings (X ± SE; n = 6; scale 0 to +4),"[5]; spot d (posterior), formulations as E220",1.04 ± 0.32
same,nmoles NO/10^6 Cells,[7]; 0.5 mM,10.9 ± 0.2 nmoles NO/10^6 Cells
same,uM NO,[7]; 0.5 mM,3.54 ± 0.06 µM
same,nmoles NO/10^6 Cells,[7]; 1 mM,24.5 ± 5.4 nmoles NO/10^6 Cells
same,uM NO,[7]; 1 mM,6.36 ± 1.56 µM
same,nmoles NO/10^6 Cells,[7]; 2.5 mM,131 ± 15 nmoles NO/10^6 Cells
same,uM NO,[7]; 2.5 mM,12.6 ± 0.5 µM
same,nmoles NO/10^6 Cells,[7]; 5 mM,174 ± 15 nmoles NO/10^6 Cells
same,uM NO,[7]; 5 mM,11.0 ± 1.1 µM
"C[C@H](O)CO [PG-S-1,2, (S)-(+)-1,2-Propanediol]",Trypsinization Detachment Time,[1]; 50 mM,3 min
same,Trypsinization Detachment Time,[1]; 150 mM,6 min
same,Cells (×10^6),[2]; 50 mM,0.088 ×10^6
same,Cells (×10^6),[2]; 150 mM,0.080 ×10^6
same,effect on cell proliferation,[2]; levels used in this experiment (50 and 150 mM),no reduction of cell proliferation
same,Morphology Flattened Cuboidal,[3]; 50 mM,25%
same,Morphology Rounded Spindly,[3]; 50 mM,75%
same,Morphology Flattened Cuboidal,[3]; 150 mM,50%
same,Morphology Rounded Spindly,[3]; 150 mM,50%
same,pg Melanin/Cell,[4]; 50 mM,17.1 pg Melanin/Cell
same,ug Melanin,[4]; 50 mM,1.51 µg
same,pg Melanin/Cell,[4]; 150 mM,25.5 pg Melanin/Cell
same,ug Melanin,[4]; 150 mM,2.04 µg
"CC(O)CCO (centres unmarked) [BD-1,3, 1,3-butanediol]",Trypsinization Detachment Time,[1]; 50 mM,3 min
same,Trypsinization Detachment Time,[1]; 150 mM,6 min
same,Cells (×10^6),[2]; 50 mM,0.064 ×10^6
same,Cells (×10^6),[2]; 150 mM,0.048 ×10^6
same,reduction of cell numbers,[2]; 150 mM,one-third
same,Morphology Flattened Cuboidal,[3]; 50 mM,75%
same,Morphology Rounded Spindly,[3]; 50 mM,25%
same,Morphology Flattened Cuboidal,[3]; 150 mM,100%
same,pg Melanin/Cell,[4]; 50 mM,15.5 pg Melanin/Cell
same,ug Melanin,[4]; 50 mM,0.99 µg
same,pg Melanin/Cell,[4]; 150 mM,18.1 pg Melanin/Cell
same,ug Melanin,[4]; 150 mM,0.87 µg
"CCO [ETOH, Ethanol]",Trypsinization Detachment Time,[1]; 1.0% (170 mM),3 min
same,Trypsinization Detachment Time,[1]; 2.0% (340 mM),3 min
same,Trypsinization Detachment Time,[1]; 5.0% (850 mM),3 min
same,effect on cells,[2]; 340 mM,no effect on cells
same,toxicity (low cell survival),[2]; 850 mM,toxic
same,Cells (×10^6),[2]; 1.0% (170 mM),0.104 ×10^6
same,Cells (×10^6),[2]; 2.0% (340 mM),0.100 ×10^6
same,Cells (×10^6),[2]; 5.0% (850 mM),0.032 ×10^6
same,Morphology Rounded Spindly,[3]; 1.0% (170 mM),100%
same,Morphology Rounded Spindly,[3]; 2.0% (340 mM),100%
same,Morphology Rounded Spindly,[3]; 5.0% (850 mM),100%
same,pg Melanin/Cell,[4]; 1.0% (170 mM),11.0 pg Melanin/Cell
same,ug Melanin,[4]; 1.0% (170 mM),1.14 µg
same,pg Melanin/Cell,[4]; 2.0% (340 mM),12.5 pg Melanin/Cell
same,ug Melanin,[4]; 2.0% (340 mM),1.25 µg
same,pg Melanin/Cell,[4]; 5.0% (850 mM),5.3 pg Melanin/Cell
same,ug Melanin,[4]; 5.0% (850 mM),0.17 µg
same,induction of melanogenesis (in words),[4],did not induce melanogenesis
